# From patent US20250262188A1, “Methods of Increasing the Plasma Drug Exposure of Anticancer Agents” (Scandion Oncology A/S, priority 2021, published 2025)
# Entries after “also recorded” stand apart in the source; their conditions may differ. Like-named read-outs stand apart in the source and are kept apart here.
# Assays:
# [1] = molecular target: T1, BCRP (Homo sapiens, UniProt Q9UNQ0); experiment: 3H-SN-38 uptake in HT29 SN-38 resistant cell monolayers (Example 6); type: cell-based; conditions: 25 μM test compound, HT29 SN-38 resistant, ANOVA α=0.05
# T1 construct: endogenous in cells; host or cells: HT29 parental and HT29 SN38-resistant colorectal cancer cells
# T1 sequence (Q9UNQ0 1-655): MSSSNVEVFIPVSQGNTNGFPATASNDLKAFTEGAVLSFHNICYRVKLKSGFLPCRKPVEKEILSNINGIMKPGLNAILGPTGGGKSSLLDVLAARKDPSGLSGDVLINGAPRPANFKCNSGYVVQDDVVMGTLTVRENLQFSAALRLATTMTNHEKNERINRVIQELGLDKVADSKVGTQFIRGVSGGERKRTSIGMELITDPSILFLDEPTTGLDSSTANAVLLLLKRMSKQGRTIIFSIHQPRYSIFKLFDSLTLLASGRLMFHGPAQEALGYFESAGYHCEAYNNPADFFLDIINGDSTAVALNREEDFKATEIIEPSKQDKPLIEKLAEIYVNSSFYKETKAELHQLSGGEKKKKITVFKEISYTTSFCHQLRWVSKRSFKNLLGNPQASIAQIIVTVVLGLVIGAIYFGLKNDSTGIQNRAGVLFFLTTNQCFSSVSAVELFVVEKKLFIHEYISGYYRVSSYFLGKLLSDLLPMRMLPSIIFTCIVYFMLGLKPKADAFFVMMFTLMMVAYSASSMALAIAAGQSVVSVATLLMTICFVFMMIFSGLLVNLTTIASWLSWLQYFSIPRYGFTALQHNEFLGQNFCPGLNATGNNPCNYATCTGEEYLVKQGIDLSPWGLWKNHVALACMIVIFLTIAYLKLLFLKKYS
# Experimental: (§1) All treatments were investigated in three technical replicates (N=3). On the day of experimentation, the culture media was exchanged with 100 μL transport buffer (HBSS, 0.05% BSA, 10 mM HEPES, pH 7.4) and cells were incubated for 15 minutes at 37° C.
# (§2) Subsequently, the blank transport buffer was exchanged with 50 μL transport buffer containing the different compounds (in 2x of the final concentration) to be tested and incubated for 15 minutes at 37° C. The uptake experiment was started by adding 50 μL of ^3H-SN38 at a concentration of 2 μCi/mL to all wells (the resulting concentration of ^3H-SN38 during the experiment was 1 μCi/mL). The uptake experiment was stopped after 15 minutes of incubation at 37° C. by removing the transport buffer from all wells.
# (§3) The cell monolayers were subsequently washed twice by adding/removing ice-cold transport buffer twice and finally the cell monolayers were lysed by incubation in 100 μl of 0.1% TritonX-100 for 15 minutes at ambient temperature. Cell lysates were transferred to scintillation vials containing 2 mL of scintillation fluid (Ultima Gold, PerkinElmer). Each well was washed with 2×100 μL purified water (milliQ), which was also transferred to respective scintillation vials.
# [2] = molecular target: T1, BCRP; experiment: 3H-SN-38 uptake in HT29 parental cell monolayers (Example 6); type: cell-based; conditions: 25 μM test compound; HT29 parental; ANOVA α=0.05
# Experimental: as §1, §2, §3
# [3] = Irinotecan (Camptosar) Norm 125 mg/m2, NO SCO-101 (n = 99), literature value; cited from earlier work
# [4] = SN-38 and irinotecan PK in patients with 100 or 150 mg SCO-101 and FOLFIRI versus literature (Example 7); conditions: for AUC Mean (SD) / Cmax Mean (SD): Irinotecan (FOLFIRI) Norm 125 mg/m2, add-on 150 mg SCO-101 (n = 10)
# [5] = SN-38 PK profile and tolerability in metastatic colorectal cancer patients treated with SCO-101 and FOLFIRI (Example 2); type: in vivo, human
# Experimental: Patients with metastatic colorectal cancer were included in a study and treated with a combination of SCO-101 and FOLFIRI (combination of irinotecan, 5-FU and leucovorin) in 14 day treatment cycles. Patients received varying doses of Irinotecan between 50% and 80% of the recommended dose of Irinotecan (180 mg/m^2) according to their individual tolerability, which is standard practise. On days 1, 2, 3, 4, 5 and 6 in each treatment cycle, patients received one fixed daily dose of 150 mg SCO-101 taken in the morning at least 30 minutes before ingestion of food. On day 5 to 7, patients received FOLFIRI as specified for Colorectal cancer combination regimen 2.
# Blood plasma samples were analysed for concentrations of SCO-101, irinotecan and SN-38 using Liquid Chromatography with Tandem Mass Spectrometric Detection (LC-MS/MS) bioanalytical method calibrated and validated in the rant 300 to 90.000 ng/ml. The method and system, including validation were according to industry standard. Data were analysed using commercially available software such as Win-Non-Lin (available from Certara inc.)
# A trial was setup to address the safety, tolerability, and efficacy of SCO-101 given orally for 6 days followed by FOLFIRI at varying doses from day 5 to 7, in a biweekly schedule, in patients with metastatic colorectal cancer who have formerly been treated with FOLFIRI and afterwards progressed. The first part of the study was a dose-finding study, where the impact of SCO-101 on the pharmacokinetics (PK) of SN-38 was studied.
# 12 patients from the dose-finding part of the study received 150 mg SCO-101 for 6 days and […] of the recommended dose of FOLFIRI. 6 of the patients had RAS wildtype tumors and these patients were subjected to further analysis.
# Blood for pharmacokinetic analysis was sampled from the patients were taken at 1, 2, 4, 8, 24, 48, and 96 hours after treatment with FOLFIRI and SCO-101.
# [6] = FIG. 1A, cited from earlier work
# [7] = SN-38, 90 mg/m2 irinotecan + SCO-101 vs 180 mg/m2 standard
Uptake of SN-38 relative to blank HBSS transport buffer control [2],AUC Mean (SD) [4] [ng·h/mL],Cmax Mean (SD) [4] [ng/mL],SMILES,AUC Mean (SD) [3] [ng·h/mL],Cmax Mean (SD) [3] [ng/mL],Uptake of SN-38 relative to blank HBSS transport buffer control [1],also measured
,12565,1457,CCc1c2c(nc3ccc(OC(=O)N4CCC(N5CCCCC5)CC4)cc13)-c1cc3c(c(=O)n1C2)COC(=O)[C@]3(O)CC [Irinotecan],10529,1492,,
significant increase,,,O=C(Nc1cc(C(F)(F)F)ccc1N1CCCCC1)c1ccncc1 [Srpin340],,,significantly increased; also recorded: significant increase,

# Continued, compound first:
SMILES,Uptake of SN-38 relative to blank HBSS transport buffer control [2],AUC Mean (SD) [4] [ng·h/mL],Cmax Mean (SD) [4] [ng/mL],AUC Mean (SD) [3] [ng·h/mL],Cmax Mean (SD) [3] [ng/mL],Uptake of SN-38 relative to blank HBSS transport buffer control [1],also measured
Nc1ncnc2n[nH]c(Nc3ccc(F)cc3)c12 [CGP57380],significant increase,,,,,,Uptake of SN-38 relative to blank HBSS transport buffer control ([1]; listed as CGP5738): not different
Cc1cc(Nc2cc(N)ncn2)c(=O)n2c1C(=O)NC21CCCCC1 [Tomivorsetib],significant increase,,,,,significantly increased; also recorded: significant increase,
CCc1c2c(nc3ccc(O)cc13)-c1cc3c(c(=O)n1C2)COC(=O)[C@]3(O)CC [SN-38],,2088,86,267,27.8,,"Fold increase (study vs Standard) of AUC_0-24 [5, 7]: 3.7; Fold increase (study vs Standard) of Cmax [5, 7]: 1.5; Fold increase (study vs Standard) of T½ [5, 7]: 1.6; half-life ([5]; human, plasma, intravenous, SN-38 study: 150 mg SCO-101 + FOLFIRI, normalized to irinotecan 90 mg/m2, day 5, read-out: T½ hours (SD) (converted)): 19 h; AUC(0-t) ([5]; human, plasma, intravenous, SN-38 study: 150 mg SCO-101 + FOLFIRI, normalized to irinotecan 90 mg/m2, read-out: AUC_0-24 h*ng/ml (SD)): 1420 ng·h/mL; SN-38 plasma Cmax ([6]; conventional irinotecan regime 180 mg/m^2, no SCO-101, public reference data): about 25 ng/ml; Time after which SN-38 plasma concentration becomes therapeutically ineffective ([6]; conventional irinotecan regime 180 mg/m^2): about 24 hours; Fold increase in AUC of SN-38 vs 125 mg/m2 irinotecan administered alone ([4]; 100 mg SCO-101): approximately 5 fold; Fold increase in AUC of SN-38 vs 125 mg/m2 irinotecan administered alone ([4]; 150 mg SCO-101): ~8 fold"
